The test system of experiment [1] is PAIGB expression in UMR106 cells. Nature of the experiment: Real time PCR of PAIGB expression in UMR106 cells. The class given is cell-based, rat. The source says:
Applicants performed multiplex real time PCR (TaqMan) analysis on previously DNAsed samples using gene specific probe and primers and 18S ribosomal RNA probe and primer sets purchased from Applied Biosystem. (Foster City, Calif.) The samples were DNAsed according to the protocol provided by Ambion (DNA-free kit). TaqMan probe and primers for PAIGB was identify using Primer Express computer program. The sequence for rat PAIGB TaqMan probe was 6FAM-5′[…] (SEQ ID NO: 16) forward and reverse primers were 5′[…] 3′ (SEQ ID NO:17) and 5′ […] 3′ (SEQ ID NO:18) respectively. The final concentrations for probes were 500 nM and 40 nM for PAIGB and 18S ribosomal RNA or GAPDH respectively. The concentrations of the primers were 500 nM for PAIGB forward and reversed primers while 18S primers were 10 and 20 nM for forward and reversed primer respectively or 40 nM for GAPDH primers. Standards for rat samples were made from rat tibia or brain RNA in the range of 250 ng to 0.1 ng, while standards for mouse specific TaqMan were made from mouse brain RNA and human standards from human brain RNA (Clonetech, Palo Alto, Calif.) spanning the same range of concentration. Primers and probes for mouse PAIGB were: forward 5′ […] 3′ (SEQ ID NO:19), reverse, 5′ […] 3′ (SEQ ID NO:20) anti-sense and probe 5′ 6FAM-[…] (SEQ ID NO:21). Primers and probes for human PAIGB were: forward 5′ […] 3′ (SEQ ID NO:22), reverse 5′ […] […]

Experiment [2] concerns PAIGB expression in ROS 17/2.8 cells. Put plainly: Real time PCR of PAIGB expression in ROS 17/2.8 cells. It counts as cell-based, rat. The following applies: for effect on PAIGB expression after 4 hours of treatment: estrogen 10 nM, tamoxifen 0.1 μM, BMP2 300 ng/ml, calcitonin 5 ng/ml. The source says:
Applicants performed multiplex real time PCR (TaqMan) analysis on previously DNAsed samples using gene specific probe and primers and 18S ribosomal RNA probe and primer sets purchased from Applied Biosystem. (Foster City, Calif.) The samples were DNAsed according to the protocol provided by Ambion (DNA-free kit). TaqMan probe and primers for PAIGB was identify using Primer Express computer program. The sequence for rat PAIGB TaqMan probe was 6FAM-5′[…] (SEQ ID NO: 16) forward and reverse primers were 5′[…] 3′ (SEQ ID NO:17) and 5′ […] 3′ (SEQ ID NO:18) respectively. The final concentrations for probes were 500 nM and 40 nM for PAIGB and 18S ribosomal RNA or GAPDH respectively. The concentrations of the primers were 500 nM for PAIGB forward and reversed primers while 18S primers were 10 and 20 nM for forward and reversed primer respectively or 40 nM for GAPDH primers. Standards for rat samples were made from rat tibia or brain RNA in the range of 250 ng to 0.1 ng, while standards for mouse specific TaqMan were made from mouse brain RNA and human standards from human brain RNA (Clonetech, Palo Alto, Calif.) spanning the same range of concentration. Primers and probes for mouse PAIGB were: forward 5′ […] 3′ (SEQ ID NO:19), reverse, 5′ […] (SEQ ID NO:21). Primers and probes for human PAIGB were: forward 5′ […] 3′ (SEQ ID NO:22), reverse 5′ […] 3′(SEQ ID NO: 24). The Taq-man analysis was done using ABI 7700 Sequence Detector under following conditions: 30 min at 48° C., 10 min at 95° C. and 40 cycles of 15 sec at 95° C. and 60 sec at 60° C. Analysis of real-time PCR analysis was performed using (Sequence Detector, Macintosh) program.
Five cell types were primarily used in our experiments. Rat osteoblast cell line (ROS 17/2.8) that expresses moderate levels of PTH receptor 1 (Rodan et al, Rev. Eukaryotic Gene Expression 1:85-98, 1991) were used to perform in vitro experiments. ROS cells were maintained under standard cell culture conditions: 10% heat inactivated FBS in Dulbecco's Modified Eagle Medium with Nutrient Mixture F-12 (DMEM/F12) media, 1% Penicillin/Streptomycin and 1% Glutamax. Mouse cell line C3H10T½ (ATCC# CCL226) as a representative of mouse osteoprogenitor cell line were maintained in Eagles Minimal Essential Media (EMEM) with the addition of 10% heat inactivated FBS and 1% Penicillin/Streptomycin and 1% Glutamax. UMR106 rat osteoblastic cells (ATCC# CRL1661) were cultured in Dulbecco's Modified Eagle Medium (DMEM) supplemented with 10% heat inactivated FBS, 1% Penicillin/Streptomycin and 1% Glutamax. The U2OS human osteoblastic cells (ATCC# HTB96) were cultured in McCoy's 5A Medium Modified supplemented with 10% FBS, 1% Penicillin/Streptomycin and 1% Glutamax. The human HOB-03-CE6 cell line (Bodine, V. N. P., et. al., J. Cell. Biochem., 65: 368-387,1997) was maintained in phenol red free DMEM/F12 media supplemented with 10% heat inactivated FBS and 1% Penicillin/Streptomycin and 1% Glutamax.
ROS 17/2.8 rat osteoblast cell line that express PTH receptor (˜80000 receptors/cell) were treated with increased doses of PTH: 1 nM, 10 nM, 100 nM and 1000 nM. Real time PCR using rat specific Taq-man probes and primers were used to examine the changes in PAIGB expression with PTH treatment.
Time course of PTH induction of PAIGB expression was examined. ROS 17/2.8_cells were treated with 10 nM PTH and RNA was harvested at 1, 2, 4, 6, 8 and 24 hours post treatment.

For the compound `C=C1CC[C@H](O)C/C1=C/C=C1\CCC[C@]2(C)[C@@H]([C@H](C)CCCC(C)C)CC[C@@H]12` [vitamin D3], in experiment [1] (UMR106 cells), the “PAIGB expression in UMR106 cells” value is “induced”.
For `CC(C)NCC(O)c1ccc(O)c(O)c1` (stereo not shown) [isoproterenol], the “increase in PAIGB expression” value in experiment [2] (data not shown, concentration and cell line not restated) stood at 2 fold.
As to `C[C@@H]1C[C@H]2[C@@H]3CCC4=CC(=O)C=C[C@]4(C)[C@@]3(F)[C@@H](O)C[C@]2(C)[C@@]1(O)C(=O)CO` [dexamethasone], the “increase in PAIGB expression” value in experiment [2] (100 nM, 4 hours) was 2-3 fold.
With `CC/C(=C(\c1ccccc1)c1ccc(OCCN(C)C)cc1)c1ccccc1` [tamoxifen], the “effect on PAIGB expression after 4 hours of treatment” value in experiment [2] (4 hours) is on record as “did not have any effect”.
Regarding `COc1ccc(C2CNC(=O)C2)cc1OC1CCCC1` (stereo not shown) [Rolipram], the PAIGB expression entry was “Increases” in experiment [2] (ROS 17/2.8 cells, data not shown) and “Increases” in experiment [1] (UMR 106 cells, data not shown).
Regarding “PKC inhibitor: Protein Kinase C inhibitor (PKC)19-27, an inhibitor of PKC signaling pathway (RFARKGALR; pseudosubstrate peptide; UniProt P17252 19-27, looked up, fragment)”, in experiment [2] (10 μM, 2 hours pretreatment, then 10 nM PTH 4 hours), the “blocking of PTH induced PAIGB expression” value is given as “little to no effect”.
Turning to `Nc1ncnc2c1ncn2C1CCCO1` (stereo not shown) [SQ 22536], the “blocking of the effect of PTH on PAIGB expression” value in experiment [2] (200 μM, 2 hours pretreatment, then 10 nM PTH 4 hours) is “completely blocks”.
With calcitonin, in experiment [2] (4 hours), the “effect on PAIGB expression after 4 hours of treatment” value is given as “did not have any effect”.
On to `CCCCC[C@H](O)/C=C/[C@H]1[C@H](O)CC(=O)[C@@H]1C/C=C\CCCC(=O)O` [PGE2, prostaglandin E2], for which the “induction of PAIGB mRNA expression” value in experiment [2] (two concentrations 10 nM and 10 μM, 4 hours) is on record as “only at the lower dose”.

For the origin of these results see patent US7258999B2, “PTH responsive gene” (Wyeth, priority 2002, dated 2007).
